Our source for the EC50 values is BindingDB's records for doi:10.1021/jm991125l (Institut Curie, 2000).

pEC50: −log10 of the molar value. Where only a bound is given, the exact number is not on record here.

The experiment in a line: Effective concentration required to achieve 50% inhibition of HIV-1 LAI replication in human T4 lymphoblastoid CEM-SS cells.
Consider `CCc1c(Sc2cc(C)cc(C)c2)n(CCCCC(=O)NCCCCCCCCCCNC(=O)CCn2c(=O)c(C)cn(C3CC(N=[N+]=[N-])C(CO)O3)c2=O)c(=O)[nH]c1=O` (configuration not stated), for which the negative logarithm of the EC50 (pEC50) is 5.55. The figure for `CCc1c(C)[nH]c(=O)c(NC(=O)CCCC(=O)OC)c1Cc1cc(C)cc(C)c1` is 4.62; for `CCc1c(C)[nH]c(=O)c(NC(=O)CNC(=O)CN)c1Cc1cc(C)cc(C)c1` it is 6.14; for `Cc1cn([C@H]2C[C@H](N=[N+]=[N-])[C@@H](CO)O2)c(=O)[nH]c1=O` [1-((2R,4S,5S)-4-Azido-5-hydroxymethyl-tetrahydro-furan-2-yl)-5-methyl-1H-pyrimidine-2,4-dione] it is 8.70. The figure for `[N-]=[N+]=NC1CC(n2cc(CCC(=O)NCCCCN)c(=O)[nH]c2=O)OC1CO` (configuration not stated) is below 4.00.

For `CCc1c(C)[nH]c(=O)c(N)c1Cc1cc(C)cc(C)c1` [3-amino-4-[(3,5-dimethylphenyl)methyl]-5-ethyl-6-methyl-1,2-dihydropyridin-2-one], the negative-log EC50 (pEC50) was 7.77. The figure for `[N-]=[N+]=NC1CC(n2cc(CCC(=O)NCCCCCCCCCCN)c(=O)[nH]c2=O)OC1CO` (configuration not stated) is 4.70.

On to `CCc1c(C)[nH]c(=O)c(NC(=O)CCCCCCCCCNC(=O)OC(C)(C)C)c1Cc1cc(C)cc(C)c1`, for which the pEC50 was below 5.00. The figure for `COC(=O)CCCNC(=O)CCc1cn(C2CC(N=[N+]=[N-])C(CO)O2)c(=O)[nH]c1=O` (configuration not stated) is below 4.00; for `CCc1c(Sc2cc(C)cc(C)c2)n(CCCCC(=O)OC)c(=O)[nH]c1=O` it is 7.60; for `NCCCCCCCCCCCCNc1ccn(C2CCC(CO)O2)c(=O)n1` (configuration not stated) it is 5.11. The figure for `CCOC(=O)CCn1c(=O)c(C)cn(C2CC(N=[N+]=[N-])C(CO)O2)c1=O` (configuration not stated) is 6.10; for `CCc1c(C)[nH]c(=O)c(NC(=O)CCCC(=O)O)c1Cc1cc(C)cc(C)c1` it is 5.35. The figure for `COC(=O)CCc1cn(C2CC(N=[N+]=[N-])C(CO)O2)c(=O)[nH]c1=O` (configuration not stated) is below 4.00; for `CCc1c(C)[nH]c(=O)c(NC(=O)CNC(=O)CNC(=O)OC(C)(C)C)c1Cc1cc(C)cc(C)c1` it is 5.49.

As for `CCc1c(C)[nH]c(=O)c(NC(=O)CCCCCCCCC(=O)O)c1Cc1cc(C)cc(C)c1`, the negative-log EC50 (pEC50) is 4.15. Regarding `CCc1c(C)[nH]c(=O)c(NC(=O)CCCCCCCCCN)c1Cc1cc(C)cc(C)c1`, the negative logarithm of the EC50 (pEC50) was 4.24.

As for `CCc1c(Sc2cc(C)cc(C)c2)n(CCCCC(=O)NCCCCCCCCCCNC(=O)CCc2cn(C3CC(N=[N+]=[N-])C(CO)O3)c(=O)[nH]c2=O)c(=O)[nH]c1=O` (configuration not stated), the pEC50 was 5.77. The figure for `CCc1c(Sc2cc(C)cc(C)c2)n(CCCCC(=O)NCCCCNC(=O)CCc2cn(C3CC(N=[N+]=[N-])C(CO)O3)c(=O)[nH]c2=O)c(=O)[nH]c1=O` (configuration not stated) is 5.48; for `CCc1c(C)[nH]c(=O)c(NC(=O)CCCCCCCCC(=O)OC)c1Cc1cc(C)cc(C)c1` it is below 5.00; for `CCc1c(Sc2cc(C)cc(C)c2)n(CCCCC(=O)NCCCCCCCCCCCCNc2ccn(C3CCC(CO)O3)c(=O)n2)c(=O)[nH]c1=O` (configuration not stated) it is 6.37.

Consider `Nc1ccn([C@H]2CC[C@@H](CO)O2)c(=O)n1` [Dideoxycytidine], for which the negative logarithm of the EC50 (pEC50) is 7.51.
